Experiments:
IL6 = assay: Secretion of IL6 from BzATP/LPS-activated microglia (ELISA); type: cell-based, Balb/C mice
Procedure: Experiments were performed on primary microglial cells isolated from brains of neonatal Balb/C mice as previously described (Reichert and Rotshenker, 2003). The brains were stripped of their meninges and enzymatically dissociated. Cells were plated on Poly-L-lysine coated flasks for one week, re-plated for 1- to 2-hr on bacteriological plates and non-adherent cells were washed away. Microglia were propagated by incubation in 20% of medium, conditioned by the L-cell line that produces mouse-CSF. They were identified by morphology and positive immune-reactivity to P2y12, F4/80, complement receptor-3 and Galectin-3/MAC-2 (Reichert and Rotshenker 2003; Gitik et al. 2011).
Cytokines were measured as previously described (Shamash et al. 2002) using ELISA Max deluxe set (Biolegend, CA, USA) for secreted TNFα and IL-6 proteins and ELISA DuoSet (R&D systems, UK) for secreted and cell associated IL-1β, according to manufacturer's instructions.
The effect of ladostigil at concentrations of 1×10^−13 M to 1×10^−9 M on the secretion of cytokine proteins was assessed by adding it to microglia for 2 hr before LPS (0.75 μg/ml) and BzATP (400 μM). Other microglia were treated similarly with the steroid, budesonide as a reference standard at concentrations of 1× 10^−13 to 1× 10^−11 M. Measurements of cytokine secretion were performed 8 hrs after addition of LPS and BzATP. Since the levels of secreted IL-1β were still low, samples were concentrated 2- to 4-fold by an Amicon ultra-centrifugal filter device (Merck-Millipore, Ireland). ELISA was used to quantify the levels of cytokine proteins. Protein content in the microglia lysate was measured by Bradford and levels of cytokines were calculated and presented as pg/μg of microglial protein.

[1] = Mortality in bleomycin-induced lung fibrosis; type: in vivo, C57BL/6JOlaHsd mice
Procedure: The animal model of bleomycin-induced lung fibrosis is widely used to characterize the potential inhibitory effect of newly developed drugs (Distler et al. 2019). Experiments were performed in C57BL/6JOlaHsd male and female mice aged 12-13 weeks. Male mice weighed 23-27.3 g and female mice, 19.4-21.1 g. They were housed under pathogen-free conditions, up to 6 per cage, in IVC cages under a controlled temperature of 22-24° C., humidity and alternating 12-h light/dark cycles and provided with food and water ad libitum. […] Saline (2-3/sex) and bleomycin controls were anesthetized as described above. Bleomycin solution (0.25 mg/kg in 50 μl) was instilled into the lumen of the trachea as shown in a video by Ehrentraut et al. (2019). […] Mice were weighed daily and sacrificed on day 21. Bronchial fluid was collected as described in Ehrentraut et al. (2019). TNFα and IL-6 in the bronchial fluid lavage was measured by ELISA as described in the preceding section.

SMILES: C#CCN[C@@H]1CCc2ccc(OC(=O)N(C)CC)cc21 [Ladostigil, 6-(N-ethyl, N-methylcarbamyloxy)-N propargyl-1 (R)-aminoindan hemitartrate]
- Emax (IL6; Mus musculus, Microglia, 8 h, 1×10^−11-1×10^−9 M, read-out: maximal reduction of IL6): ~50%
- minimal effective concentration (IL6; Mus musculus, microglia, BzATP/LPS, medium containing BSA, 8 hrs, read-out: lowest concentration that significantly decreased IL6 secretion): 1e-07 µM
- reduction of IL6 release (IL6; all concentrations tested, added 2 hrs before BzATP and LPS, 0.1% BSA, p<0.01): reduced the 3 cytokines significantly
- reduction of IL6 compared with reduction of TNF (IL6; all concentrations tested, p<0.001): greater than those of TNF
- mortality ([1]; females, ladostigil+bleomycin, 2.5 mg/kg (2/10)): 20%
- mortality ([1]; females, ladostigil+bleomycin, 5 mg/kg (1/20)): 5%
- mortality (animals died/total) ([1]; females, ladostigil+bleomycin, dose not given): 1/11
- mortality ([1]; males, bleomycin+ladostigil 5 mg/kg, day 17 (2/9)): 22%
- mortality ([1]; males, ladostigil 10 mg/kg, day 17 (1/11)): 9%

— patent publication US20260294863A1, “METHOD OF TREATING FIBROTIC-RELATED CONDITION” (YISSUM RESEARCH DEVELOPMENT COMPANY OF THE HEBREW …, priority 2023, published 2026)
